Paper PMC11272598, “RG7774 (Vicasinabin), an orally bioavailable cannabinoid receptor 2 (CB2R) agonist, decreases retinal vascular permeability, leukocyte adhesion, and ocular inflammation in animal models” (Frontiers in Pharmacology, 2024)
≈ marks a conversion by molar mass, not a printed value.

Columns and labels:
Human 12-LOX = molecular target: T1, Human 12-LOX (Homo sapiens, UniProt P18054); assay: Human 12-LOX assay; assay type: biochemical; details: RG7774 10 µM; read-out: Mean ± SEM % inhibition of control, Human 12-LOX
T1 construct: human platelet-derived 12-LOX; from tissue; host or cells: human platelets
T1 sequence (P18054 whole entry): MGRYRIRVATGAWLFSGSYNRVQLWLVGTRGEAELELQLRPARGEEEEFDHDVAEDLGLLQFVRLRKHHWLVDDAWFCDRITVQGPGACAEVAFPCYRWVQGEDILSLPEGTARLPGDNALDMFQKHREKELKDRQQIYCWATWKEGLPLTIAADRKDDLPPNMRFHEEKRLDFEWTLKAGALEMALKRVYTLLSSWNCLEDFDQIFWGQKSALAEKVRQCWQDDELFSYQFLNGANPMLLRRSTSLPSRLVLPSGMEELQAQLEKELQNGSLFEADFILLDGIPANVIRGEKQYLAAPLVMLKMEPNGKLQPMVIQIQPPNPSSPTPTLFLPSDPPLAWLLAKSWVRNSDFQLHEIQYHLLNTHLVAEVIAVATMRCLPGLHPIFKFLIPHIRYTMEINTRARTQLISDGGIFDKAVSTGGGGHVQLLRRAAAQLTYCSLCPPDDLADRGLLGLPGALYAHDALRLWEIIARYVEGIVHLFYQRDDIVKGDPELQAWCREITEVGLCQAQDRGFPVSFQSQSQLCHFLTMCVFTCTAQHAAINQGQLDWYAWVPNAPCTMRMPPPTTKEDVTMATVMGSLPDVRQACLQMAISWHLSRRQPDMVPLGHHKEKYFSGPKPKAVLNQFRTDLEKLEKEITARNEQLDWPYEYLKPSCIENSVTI
Procedure: (§1) The inhibitory effects of different concentrations of RG7774 (0.1-500 µM) on the activities of human recombinant 5-LOX (Cayman Chemical Company #60402), 15-LOX (Cayman Chemical Company #10011263), and human platelet-derived 12-LOX were determined using the Biovision Lipoxygenase Activity Assay Kit (#BVN-K978-100). This kit converts the LOX substrate to an intermediate that reacted with the probe, generating a fluorescent product. The effect of RG7774 (preincubated for 15 min) at 10 µM on LOXs (5-LOX: 0.5 or 1.2 µg; 12-LOX: 20 µg; 15-LOX: 0.23 or 0.3 µg) was ascertained by adding the compounds directly to the incubation medium and the fluorescent signal, recorded at excitation/emission 500/536 nm at 30 sec intervals for 30-40 min, was directly proportional to LOX activity. […] The percentage of human 5-, 12-, and 15-LOX activity (control) was estimated from the amount of oxidized probe in the reaction using a standard curve.

[1] = Kinetic lyophilization solubility assay (LYSA); assay type: physicochemical; details: aqueous buffer, 0.05 M PBS pH 6.5
Procedure: RG7774 samples were prepared in duplicate from 10 mM DMSO stock solutions. DMSO was evaporated for 1 h using a centrifugal vacuum evaporator (Genevac Technologies, UK) and the residue was dissolved in 0.05 M PBS (pH 6.5), stirred for 1 h, and shaken for 2 h. Solutions were filtered 12 h later using a microtiter filter plate (MSDV N65; Merck Millipore, MA, USA). The filtrate and its 1:10 dilution were analyzed by direct ultraviolet (UV) measurement or high-performance liquid chromatography with UV spectroscopy (HPLC-UV). […] The measurement range for a compound with molecular weight 500 was 0 to 666 μg/mL.

[2] = tested on: LPS-induced leukocyte adhesion; assay: LPS-induced leukocyte adhesion in mice with EIU (IVM); assay type: in vivo, BALB/c mice; details: 6 h after LPS
Procedure: Male BALB/c mice aged 8–10 weeks and weighing 21–26 g (Charles River, QC, Canada) were housed in individually ventilated Allentown cages (Allentown Inc., NJ, United States). Maximum density was n = 5 per cage, with the same litter and sex. Male Lewis rats aged 7–10 weeks and weighing 200–300 g (Charles River, QC, Canada) were housed in static cages (Allentown Inc., NJ, United States), n = 2 per cage with the same litter and sex. Both mice and rats were maintained in a controlled environment (21°C–22°C, humidity range 40%–60%, and a 12 h light/dark cycle), with unrestricted access to food and water. All experiments were conducted in accordance with the standards and procedures of the Canadian Council on Animal Care ([CCAC, 2024]) and were approved by the Dalhousie University Committee on Laboratory Animals. The protocol #13-027 was approved for experimental work in mice. […] All experiments were performed and are reported in accordance with the ARRIVE guidelines ([Kilkenny et al., 2010]; [McGrath et al., 2010]).
Mice and rats were anesthetized with 5% isoflurane in 100% O2 and intraperitoneal (IP) injection of sodium pentobarbital (65 mg/kg), respectively, before receiving IVT injections of sterile 0.9% saline solution (control) or 125 ng/μL LPS (L8274, Sigma-Aldrich, St. Louis, MO, United States) diluted in 0.9% saline. Injections were administered through the pars plana using a 30-gauge needle and Hamilton syringe (Hamilton Company, Reno, NV, United States) with the assistance of a WILD M37 dissecting microscope (Leitz Canada, Vaughan, ON, Canada). Mice received 2 μL of the LPS solution; rats received 5 μL. To avoid touching the lens or damaging the eye, the tip of the needle was directed toward the posterior pole and only the beveled tip (2–3 mm) was allowed to enter the vitreal cavity. […]
IVM was used for in vivo investigations of LPS-induced leukocyte recruitment as previously described ([Toguri et al., 2014]). […] The depth of anesthesia throughout the procedure was assessed by the absence of a toe-pinch reflex. […]

logD 7.4 = assay type: physicochemical; details: octanol/water, pH 7.4
Description: (§2) TABLE 2 Physicochemical and ADMET profile for RG7774.

Human 5-LOX = molecular target: T2, Human 5-LOX (Homo sapiens, UniProt P09917); assay: Human 5-LOX assay; assay type: biochemical; details: RG7774 10 µM; read-out: Mean ± SEM % inhibition of control, Human 5-LOX
T2 construct: purchased Cayman Chemical Company #60402
T2 sequence (P09917 whole entry): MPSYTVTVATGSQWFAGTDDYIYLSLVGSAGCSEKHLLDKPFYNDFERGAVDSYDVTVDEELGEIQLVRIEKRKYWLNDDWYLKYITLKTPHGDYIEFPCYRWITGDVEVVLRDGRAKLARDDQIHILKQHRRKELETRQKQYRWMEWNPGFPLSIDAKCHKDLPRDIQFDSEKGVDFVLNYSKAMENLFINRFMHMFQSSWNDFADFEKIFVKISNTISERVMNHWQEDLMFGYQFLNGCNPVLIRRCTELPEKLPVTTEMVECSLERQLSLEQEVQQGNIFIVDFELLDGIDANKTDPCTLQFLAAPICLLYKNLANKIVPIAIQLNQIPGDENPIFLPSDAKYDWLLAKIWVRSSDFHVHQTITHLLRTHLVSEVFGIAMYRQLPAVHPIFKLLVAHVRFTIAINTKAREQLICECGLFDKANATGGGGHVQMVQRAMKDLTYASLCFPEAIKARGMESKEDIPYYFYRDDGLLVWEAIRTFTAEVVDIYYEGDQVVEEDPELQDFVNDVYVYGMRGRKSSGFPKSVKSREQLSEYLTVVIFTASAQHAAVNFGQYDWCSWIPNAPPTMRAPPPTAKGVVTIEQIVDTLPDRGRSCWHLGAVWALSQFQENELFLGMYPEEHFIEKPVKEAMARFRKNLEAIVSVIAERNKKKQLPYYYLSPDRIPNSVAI
Procedure: as §1

hERG = hERG (Homo sapiens, UniProt Q12809); assay: hERG inhibition
Sequence of hERG (Q12809 whole entry): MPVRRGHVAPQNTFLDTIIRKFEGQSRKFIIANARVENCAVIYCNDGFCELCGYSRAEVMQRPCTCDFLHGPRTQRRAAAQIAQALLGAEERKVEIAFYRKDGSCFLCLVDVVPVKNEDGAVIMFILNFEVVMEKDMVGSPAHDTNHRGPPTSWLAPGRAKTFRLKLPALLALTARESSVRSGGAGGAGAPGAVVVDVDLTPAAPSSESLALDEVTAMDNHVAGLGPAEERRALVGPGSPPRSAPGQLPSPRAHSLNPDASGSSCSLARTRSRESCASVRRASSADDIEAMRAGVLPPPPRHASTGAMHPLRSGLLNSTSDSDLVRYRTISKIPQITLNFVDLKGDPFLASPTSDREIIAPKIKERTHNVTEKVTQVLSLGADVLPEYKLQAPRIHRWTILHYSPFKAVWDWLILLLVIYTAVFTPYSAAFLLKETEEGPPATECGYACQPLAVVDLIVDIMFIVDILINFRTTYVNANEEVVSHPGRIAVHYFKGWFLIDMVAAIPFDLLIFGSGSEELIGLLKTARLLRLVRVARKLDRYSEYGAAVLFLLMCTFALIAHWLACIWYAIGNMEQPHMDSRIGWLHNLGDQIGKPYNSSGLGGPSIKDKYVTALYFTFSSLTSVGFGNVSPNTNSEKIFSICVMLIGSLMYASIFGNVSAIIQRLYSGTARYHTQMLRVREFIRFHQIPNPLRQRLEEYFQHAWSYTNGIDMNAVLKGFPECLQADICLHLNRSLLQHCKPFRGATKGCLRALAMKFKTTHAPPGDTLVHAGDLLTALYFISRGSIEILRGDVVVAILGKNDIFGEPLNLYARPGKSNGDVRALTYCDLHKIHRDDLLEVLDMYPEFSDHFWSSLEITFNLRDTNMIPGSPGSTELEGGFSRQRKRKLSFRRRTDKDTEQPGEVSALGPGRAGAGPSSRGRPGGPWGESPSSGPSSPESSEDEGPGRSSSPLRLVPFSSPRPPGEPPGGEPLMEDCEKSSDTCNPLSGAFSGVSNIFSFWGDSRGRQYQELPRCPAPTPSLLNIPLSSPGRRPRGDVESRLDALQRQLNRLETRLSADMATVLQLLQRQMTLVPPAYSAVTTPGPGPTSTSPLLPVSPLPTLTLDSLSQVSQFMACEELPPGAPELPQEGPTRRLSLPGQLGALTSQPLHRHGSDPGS
Description: as §2

Structure (SMILES): Cn1nnnc1Cn1nnc2c(N3CC[C@H](O)C3)nc(C(C)(C)C)nc21 [RG7774, (S)-1-(5-tert-butyl-3-[(1-methyl-1H-tetrazol-5-yl)methyl]-3H-[1,2,3]triazolo[4,5-d]pyrimidin-7-yl)pyrrolidin-3-ol]
- inhibition at 10 µM (Human 12-LOX): 1.5 ± 1.8%
- solubility kinetic [1]: 285 µg/mL (≈ 795 µM)
- decrease in leukocyte adhesion compared to vehicle control ([2]; single IV 0.03 mg/kg): 21%
- decrease in leukocyte adhesion compared to vehicle control ([2]; single IV 0.3 mg/kg): 65%
- decrease in leukocyte adhesion compared to vehicle control ([2]; single IV 3 mg/kg): 82%
- logD (logD 7.4): 2.2
- inhibition at 10 µM (Human 5-LOX): -20.5%
- IC50 (hERG): > 20 µM
